Assay results taken from US8999944B2, “Thioredoxin interacting protein (TXNIP) as regulator of vascular function” (University of Rochester, priority 2005, dated 2015).

Test system: VCAM1
Experiment: TNF-induced VCAM1 expression in HUVEC (immunoblotting)
Assay type: cell-based, human
Settings: for TNF-induced VCAM1 expression: inhibitor at 30 μM
Description: FIG. […] VCAM-1 expression was determined by immunoblotting from 3 independent experiments. Equal protein loading was confirmed with actin antibody.
To knockdown TXNIP, HUVEC were treated with small interference RNA (siRNA) against human TXNIP coding region. The target sequences were: 5′-AAGCCGTTAGGATCCTGGCTT (SEQ ID NO: 1) for human TXNIP and 5′-AATTCTCCGAACGTGTCACGT-3′ (SEQ ID NO: 2) for control non-silencing siRNA, respectively (Qiagen-Xeragon). HUVEC at >90% confluence in 60-mm dishes were used for transfection. […] This mixture was added to HUVEC in normal culture media (2 ml) and cells were incubated for 1.5 h. The medium was changed and cells recovered for 24 h. The transfection was repeated and after 24 h, cells were used for experiments.
I.P. and I.B. experiments were performed as described previously (Surapisitchat et al., “Fluid Shear Stress Inhibits TNF-Alpha Activation of JNK but not ERK½ or p38 in Human Umbilical Vein Endothelial Cells: Inhibitory Crosstalk Among MAPK Family Members,” Proc Natl Acad Sci USA 98:6476-6481 (2001); Liu et al., “Laminar Flow Inhibits TNF-Induced ASK1 Activation by Preventing Dissociation of ASK1 From its Inhibitor 14-3-3,” J Clin Invest 107:917-923 (2001); Yamawaki et al., “Chronic Physiological Shear Stress Inhibits Tumor Necrosis Factor-Induced Proinflammatory Responses in Rabbit Aorta Perfused ex vivo,” Circulation 108:1619-1625 (2003), each of which is hereby incorporated by reference in its entirety). The resulting autoradiograms were analyzed with NIH Image 1.60. Experiments were performed at least three times and equal loading of protein was ensured by measuring actin expression.

| Compound | TNF-induced VCAM1 expression | effect on VCAM1 expression (inhibitor at 10 μM, n=4) |
| --- | --- | --- |
| C[S+]([O-])c1ccc(-c2nc(-c3ccncc3)c(-c3ccc(F)cc3)[nH]2)cc1 (stereo not drawn) [SB203580] | almost completely blocked |  |
| Oc1c2ccccc2c2c3c(cccc13)N=N2 [SP600125] |  | no effect |
| COc1cccc(-c2cc(=O)c3ccccc3o2)c1N [PD98059] | not |  |
